{
  "source": "patent US11331299B2",
  "about": "“Medicinal use of serrulatane diterpenes” (The University of Sydney, priority 2016, dated 2022)",
  "key": {"[1]": {"biological_target": "T1, ATAD2B (h) bromodomain (Homo sapiens, UniProt Q9ULI0)", "T1 construct": "ATAD2B bromodomain; host or cells: E. coli", "T1 sequence (Q9ULI0 951-1066 limits assumed)": "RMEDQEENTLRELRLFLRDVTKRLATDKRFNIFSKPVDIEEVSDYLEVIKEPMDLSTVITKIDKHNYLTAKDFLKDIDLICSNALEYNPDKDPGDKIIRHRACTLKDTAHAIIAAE", "experiment": "Epigenetic binding assay, Bromodomain", "conditions": "10 μM; read-out: % Inhibition of Control Specific Binding"}, "[2]": {"biological_target": "T2, PHIP(2) (h) bromodomain (Homo sapiens, UniProt Q8WWQ0)", "T2 construct": "Bromodomain", "experiment": "Epigenetic binding assay, Bromodomain", "conditions": "10 μM; for inhibition at 10 µM: read-out: % Inhibition of Control Specific Binding"}, "[3]": {"biological_target": "T3, SMARCA4 (h) bromodomain (Homo sapiens, UniProt P51532)", "T3 construct": "Bromodomain", "T3 sequence (P51532 1453-1564 limits assumed)": "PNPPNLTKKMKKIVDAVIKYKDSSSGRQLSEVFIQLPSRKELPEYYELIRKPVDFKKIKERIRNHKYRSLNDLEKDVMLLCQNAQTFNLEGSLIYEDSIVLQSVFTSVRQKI", "experiment": "Epigenetic binding assay, Bromodomain", "conditions": "read-out: % Inhibition of Control Specific Binding"}, "[4]": {"biological_target": "T4, FALZ (h) bromodomain (Homo sapiens, UniProt Q12830)", "T4 construct": "Bromodomain; Eurofins CEREP (France), contract laboratory", "experiment": "Epigenetic binding assay, Bromodomain", "conditions": "10 μM; read-out: % Inhibition of Control Specific Binding"}, "[5]": {"biological_target": "T5, CBX4 (h) chromodomain (Homo sapiens, UniProt O00257)", "T5 construct": "Recognition and specificity determinants of the human cbx chromodomains; Eurofins CEREP (France), contract laboratory", "T5 sequence (O00257 11-69 limits assumed)": "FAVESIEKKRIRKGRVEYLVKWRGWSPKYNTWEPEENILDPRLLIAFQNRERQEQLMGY", "experiment": "Epigenetic binding assay, Chromodomain", "conditions": "read-out: % Inhibition of Control Specific Binding"}, "[6]": {"biological_target": "T6, SP140 (h) PHD domain (Homo sapiens, UniProt Q13342)", "T6 construct": "Eurofins CEREP (France), contract laboratory", "T6 sequence (Q13342 690-736 limits assumed)": "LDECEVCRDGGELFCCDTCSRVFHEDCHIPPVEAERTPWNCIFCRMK", "experiment": "Epigenetic binding assay, PHD domain", "conditions": "for inhibition at 10 µM: read-out: % Inhibition of Control Specific Binding"}, "[7]": {"biological_target": "pCAF(h) (Homo sapiens, UniProt Q92831)", "sequence (Q92831 whole entry)": "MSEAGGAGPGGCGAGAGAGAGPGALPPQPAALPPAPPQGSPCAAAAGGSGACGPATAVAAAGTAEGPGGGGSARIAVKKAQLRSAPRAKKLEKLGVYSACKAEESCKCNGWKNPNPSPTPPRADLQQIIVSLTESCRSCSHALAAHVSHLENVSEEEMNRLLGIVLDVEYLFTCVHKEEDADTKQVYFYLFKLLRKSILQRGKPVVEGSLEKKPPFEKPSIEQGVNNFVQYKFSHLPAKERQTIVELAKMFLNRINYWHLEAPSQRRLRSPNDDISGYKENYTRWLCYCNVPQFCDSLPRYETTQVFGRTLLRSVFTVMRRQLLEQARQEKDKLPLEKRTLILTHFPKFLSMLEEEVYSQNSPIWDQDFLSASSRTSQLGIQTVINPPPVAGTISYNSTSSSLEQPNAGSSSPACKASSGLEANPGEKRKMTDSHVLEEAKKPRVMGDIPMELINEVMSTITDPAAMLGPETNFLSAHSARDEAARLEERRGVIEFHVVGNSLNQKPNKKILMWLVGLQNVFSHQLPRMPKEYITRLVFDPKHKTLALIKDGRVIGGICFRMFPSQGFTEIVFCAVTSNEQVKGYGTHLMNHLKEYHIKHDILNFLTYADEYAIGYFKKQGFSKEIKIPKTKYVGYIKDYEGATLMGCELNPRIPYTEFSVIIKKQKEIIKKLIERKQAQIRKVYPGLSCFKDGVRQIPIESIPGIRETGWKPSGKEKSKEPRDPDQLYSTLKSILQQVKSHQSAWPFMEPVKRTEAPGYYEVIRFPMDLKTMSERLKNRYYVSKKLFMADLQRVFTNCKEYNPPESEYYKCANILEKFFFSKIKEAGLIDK", "experiment": "Epigenetic enzyme assay, Histone acetyltransferases (HATs)", "format": "biochemical", "conditions": "read-out: % Inhibition of Control Values"}, "[8]": {"biological_target": "HDAC9 (h) (Homo sapiens, UniProt Q9UKV0)", "sequence (Q9UKV0 whole entry)": "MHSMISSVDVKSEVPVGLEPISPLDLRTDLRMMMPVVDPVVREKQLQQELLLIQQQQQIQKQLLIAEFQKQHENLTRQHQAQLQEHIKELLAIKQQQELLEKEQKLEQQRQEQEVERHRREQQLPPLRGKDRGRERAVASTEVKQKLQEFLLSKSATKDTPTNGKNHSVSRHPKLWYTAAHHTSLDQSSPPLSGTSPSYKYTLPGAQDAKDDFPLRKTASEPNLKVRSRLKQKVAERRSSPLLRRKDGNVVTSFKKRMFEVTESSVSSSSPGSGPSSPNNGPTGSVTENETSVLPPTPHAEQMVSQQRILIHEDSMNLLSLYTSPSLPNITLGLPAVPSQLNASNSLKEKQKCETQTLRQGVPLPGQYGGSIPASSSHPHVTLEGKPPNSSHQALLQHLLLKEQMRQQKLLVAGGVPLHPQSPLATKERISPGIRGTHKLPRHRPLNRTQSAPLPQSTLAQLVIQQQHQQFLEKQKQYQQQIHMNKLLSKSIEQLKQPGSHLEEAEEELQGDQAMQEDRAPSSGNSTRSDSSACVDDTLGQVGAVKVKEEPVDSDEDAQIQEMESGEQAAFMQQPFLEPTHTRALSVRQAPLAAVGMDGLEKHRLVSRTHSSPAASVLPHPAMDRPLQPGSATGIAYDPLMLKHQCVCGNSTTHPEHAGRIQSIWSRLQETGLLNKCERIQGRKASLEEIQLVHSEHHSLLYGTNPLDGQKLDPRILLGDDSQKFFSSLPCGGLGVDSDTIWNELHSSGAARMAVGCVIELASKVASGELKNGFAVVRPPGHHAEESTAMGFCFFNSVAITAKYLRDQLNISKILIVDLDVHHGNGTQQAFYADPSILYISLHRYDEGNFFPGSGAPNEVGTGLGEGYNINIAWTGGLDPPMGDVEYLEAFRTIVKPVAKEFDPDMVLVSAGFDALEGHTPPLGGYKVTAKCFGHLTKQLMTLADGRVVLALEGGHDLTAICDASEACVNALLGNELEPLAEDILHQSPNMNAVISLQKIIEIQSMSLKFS", "experiment": "Epigenetic enzyme assay, Histone deacetylase (HDACs)", "format": "biochemical", "conditions": "read-out: % Inhibition of Control Values"}, "[9]": {"biological_target": "T7, HDAC10 (h) (Homo sapiens, UniProt Q969S8)", "T7 sequence (Q969S8 1-669)": "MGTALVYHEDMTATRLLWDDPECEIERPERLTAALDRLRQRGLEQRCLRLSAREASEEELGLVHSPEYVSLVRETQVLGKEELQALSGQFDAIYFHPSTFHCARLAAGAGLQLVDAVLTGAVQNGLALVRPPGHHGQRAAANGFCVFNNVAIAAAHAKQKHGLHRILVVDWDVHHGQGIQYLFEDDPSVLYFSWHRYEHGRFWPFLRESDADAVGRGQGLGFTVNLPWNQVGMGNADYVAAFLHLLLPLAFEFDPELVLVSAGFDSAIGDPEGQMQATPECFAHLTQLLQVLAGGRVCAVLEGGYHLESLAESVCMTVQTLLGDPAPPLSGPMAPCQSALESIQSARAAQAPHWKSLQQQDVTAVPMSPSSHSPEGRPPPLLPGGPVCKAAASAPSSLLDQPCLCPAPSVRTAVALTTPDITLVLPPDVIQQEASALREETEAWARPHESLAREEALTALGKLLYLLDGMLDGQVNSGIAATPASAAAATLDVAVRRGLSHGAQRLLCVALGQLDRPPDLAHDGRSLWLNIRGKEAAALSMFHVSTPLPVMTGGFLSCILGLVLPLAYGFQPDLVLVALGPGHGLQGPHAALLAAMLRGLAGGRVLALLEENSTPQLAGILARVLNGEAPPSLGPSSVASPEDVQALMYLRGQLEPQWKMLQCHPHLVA", "experiment": "Epigenetic enzyme assay, Histone deacetylase (HDACs)", "format": "biochemical", "conditions": "read-out: % Inhibition of Control Values"}, "[10]": {"biological_target": "T8, HDAC11 (h) (Homo sapiens, UniProt Q96DB2)", "T8 sequence (Q96DB2 1-347)": "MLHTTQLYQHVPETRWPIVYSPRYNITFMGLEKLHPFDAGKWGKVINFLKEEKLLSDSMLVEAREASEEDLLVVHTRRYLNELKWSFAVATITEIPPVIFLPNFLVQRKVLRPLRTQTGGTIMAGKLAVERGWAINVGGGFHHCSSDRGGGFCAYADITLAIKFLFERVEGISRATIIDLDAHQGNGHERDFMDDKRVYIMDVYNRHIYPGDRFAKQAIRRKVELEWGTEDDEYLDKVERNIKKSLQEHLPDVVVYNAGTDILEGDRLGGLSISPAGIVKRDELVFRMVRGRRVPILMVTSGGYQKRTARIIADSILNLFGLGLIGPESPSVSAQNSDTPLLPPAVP", "experiment": "Epigenetic enzyme assay, Histone deacetylase (HDACs)", "format": "biochemical", "conditions": "read-out: % Inhibition of Control Values"}, "[11]": {"biological_target": "T9, SETD8 (h) (Homo sapiens, UniProt Q9NQR1)", "T9 sequence (Q9NQR1 1-393)": "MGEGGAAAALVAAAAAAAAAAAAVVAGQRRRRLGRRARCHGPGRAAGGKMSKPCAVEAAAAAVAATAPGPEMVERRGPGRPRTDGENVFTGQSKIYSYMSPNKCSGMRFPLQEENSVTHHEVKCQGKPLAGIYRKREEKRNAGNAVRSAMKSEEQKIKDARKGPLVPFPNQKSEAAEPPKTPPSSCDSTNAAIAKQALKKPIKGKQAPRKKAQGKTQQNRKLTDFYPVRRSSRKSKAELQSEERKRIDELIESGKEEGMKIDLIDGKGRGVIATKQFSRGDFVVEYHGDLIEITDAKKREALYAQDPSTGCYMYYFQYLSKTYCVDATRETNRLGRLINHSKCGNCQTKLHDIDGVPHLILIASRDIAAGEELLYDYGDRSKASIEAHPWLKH", "experiment": "Epigenetic enzyme assay, Methyltransferases (MTs)", "format": "biochemical", "conditions": "10 μM; read-out: % Inhibition of Control Values"}, "[12]": {"biological_target": "USP 7 (h) (Homo sapiens, UniProt Q93009)", "sequence (Q93009 whole entry)": "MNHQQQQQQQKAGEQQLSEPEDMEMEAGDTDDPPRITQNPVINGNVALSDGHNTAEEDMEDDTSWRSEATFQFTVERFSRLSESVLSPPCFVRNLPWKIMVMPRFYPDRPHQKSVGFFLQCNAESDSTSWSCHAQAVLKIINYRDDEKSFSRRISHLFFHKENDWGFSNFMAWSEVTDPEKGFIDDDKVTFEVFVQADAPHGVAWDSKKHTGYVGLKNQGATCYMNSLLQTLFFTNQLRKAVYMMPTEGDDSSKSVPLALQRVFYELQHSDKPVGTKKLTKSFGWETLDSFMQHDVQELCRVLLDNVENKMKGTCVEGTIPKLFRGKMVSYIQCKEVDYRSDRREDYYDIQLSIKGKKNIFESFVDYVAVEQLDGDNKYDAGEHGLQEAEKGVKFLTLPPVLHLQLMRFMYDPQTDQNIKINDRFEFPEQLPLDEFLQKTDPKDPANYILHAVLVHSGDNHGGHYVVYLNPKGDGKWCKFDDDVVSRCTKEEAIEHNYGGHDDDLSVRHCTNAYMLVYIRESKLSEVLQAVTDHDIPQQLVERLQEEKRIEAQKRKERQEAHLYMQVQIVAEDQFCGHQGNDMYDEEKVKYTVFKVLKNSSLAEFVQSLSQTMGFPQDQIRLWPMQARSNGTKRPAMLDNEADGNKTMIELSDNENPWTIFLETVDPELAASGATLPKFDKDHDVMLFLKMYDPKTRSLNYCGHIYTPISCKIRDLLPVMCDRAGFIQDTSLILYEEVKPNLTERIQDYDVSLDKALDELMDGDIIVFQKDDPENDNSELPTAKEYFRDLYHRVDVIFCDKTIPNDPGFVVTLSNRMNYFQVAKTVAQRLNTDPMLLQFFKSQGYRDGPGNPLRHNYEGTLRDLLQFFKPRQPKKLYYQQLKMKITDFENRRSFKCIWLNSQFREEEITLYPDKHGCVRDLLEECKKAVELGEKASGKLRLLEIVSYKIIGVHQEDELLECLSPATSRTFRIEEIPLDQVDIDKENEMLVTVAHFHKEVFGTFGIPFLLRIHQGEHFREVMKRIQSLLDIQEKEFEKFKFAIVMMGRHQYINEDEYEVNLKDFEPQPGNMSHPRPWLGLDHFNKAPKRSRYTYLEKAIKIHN", "experiment": "Epigenetic enzyme assay, Ubiquitin modifying enzymes", "format": "biochemical", "conditions": "10 μM; read-out: % Inhibition of Control Values"}, "[13]": {"biological_target": "T10, Xanthine Oxidase (Bos taurus, UniProt P80457)", "T10 construct": "Bovine buttermilk; from tissue; host or cells: bovine buttermilk", "T10 sequence (P80457 whole entry)": "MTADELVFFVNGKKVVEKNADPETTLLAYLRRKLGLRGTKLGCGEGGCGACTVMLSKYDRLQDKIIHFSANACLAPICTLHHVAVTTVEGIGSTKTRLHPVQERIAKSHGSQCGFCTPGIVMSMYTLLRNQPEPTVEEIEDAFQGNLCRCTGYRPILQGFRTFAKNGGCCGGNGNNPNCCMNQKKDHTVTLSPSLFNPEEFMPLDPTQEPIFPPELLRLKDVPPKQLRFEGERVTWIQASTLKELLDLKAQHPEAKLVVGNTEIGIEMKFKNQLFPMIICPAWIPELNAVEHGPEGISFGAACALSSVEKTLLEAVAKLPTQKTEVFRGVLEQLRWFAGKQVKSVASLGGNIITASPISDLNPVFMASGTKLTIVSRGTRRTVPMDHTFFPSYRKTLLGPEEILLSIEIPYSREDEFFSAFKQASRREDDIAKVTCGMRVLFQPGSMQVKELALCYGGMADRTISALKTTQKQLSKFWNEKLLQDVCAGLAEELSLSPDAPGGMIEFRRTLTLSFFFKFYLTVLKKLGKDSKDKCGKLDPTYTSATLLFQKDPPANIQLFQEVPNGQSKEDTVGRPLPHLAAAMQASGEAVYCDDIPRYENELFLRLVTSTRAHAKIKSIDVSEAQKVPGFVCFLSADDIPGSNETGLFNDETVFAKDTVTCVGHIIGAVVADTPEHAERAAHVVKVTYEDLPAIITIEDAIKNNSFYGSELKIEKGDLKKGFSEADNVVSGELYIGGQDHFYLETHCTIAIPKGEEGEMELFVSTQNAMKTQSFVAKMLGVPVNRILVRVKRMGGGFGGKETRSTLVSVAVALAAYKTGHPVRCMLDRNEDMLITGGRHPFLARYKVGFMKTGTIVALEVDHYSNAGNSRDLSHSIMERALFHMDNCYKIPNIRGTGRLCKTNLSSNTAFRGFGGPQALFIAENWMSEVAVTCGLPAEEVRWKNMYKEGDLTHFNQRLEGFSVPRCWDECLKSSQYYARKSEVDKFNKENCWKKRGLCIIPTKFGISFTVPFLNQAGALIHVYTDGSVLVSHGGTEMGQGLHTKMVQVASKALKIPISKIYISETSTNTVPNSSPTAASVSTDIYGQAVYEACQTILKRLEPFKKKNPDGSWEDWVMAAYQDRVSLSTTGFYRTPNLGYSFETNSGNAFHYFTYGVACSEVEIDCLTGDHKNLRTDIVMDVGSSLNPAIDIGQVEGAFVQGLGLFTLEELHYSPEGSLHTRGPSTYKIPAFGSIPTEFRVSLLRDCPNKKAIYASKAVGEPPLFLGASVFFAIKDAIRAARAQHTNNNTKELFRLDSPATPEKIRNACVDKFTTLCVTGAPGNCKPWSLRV", "experiment": "Xanthine Oxidase", "format": "biochemical, Bovine", "conditions": "assay year 2015, read-out: % Control Response", "procedure": "The in vitro pharmacological studies were conducted by Eurofins PanLab (Taiwan) using the parameters shown in Table 13 with respect to appropriate literature references."}},
  "data": [
    {"smiles": "CC(C)=CCC[C@H](CO)[C@@H]1CC[C@@H](C)c2c1cc(C)c(O)c2O", "note": "[Compound 1, 7,8,18-trihydroxyserrulat-14-ene]", "values": [
      {"measurement": "inhibition at 10 µM", "setting": "[1]", "result": 52, "unit": "%"},
      {"measurement": "% Inhibition of Control Specific Binding", "setting": "[2]", "result": "significant inhibitory activity"},
      {"measurement": "inhibition at 10 µM", "setting": "[2]", "result": 61, "unit": "%"},
      {"measurement": "inhibition at 10 µM", "setting": "[3]", "result": 53, "unit": "%"},
      {"measurement": "inhibition at 10 µM", "setting": "[4]", "result": 42, "unit": "%"},
      {"measurement": "inhibition at 10 µM", "setting": "[5]", "result": 25, "unit": "%"},
      {"measurement": "% Inhibition of Control Specific Binding", "setting": "[6]; 10 μM", "result": "good inhibitory activity"},
      {"measurement": "inhibition at 10 µM", "setting": "[6]; 10 μM", "result": 74, "unit": "%"},
      {"measurement": "IC50", "setting": "[6]; Table 9, inhibition/concentration-response curve", "result": 4.6, "unit": "µM"},
      {"measurement": "inhibition at 10 µM", "setting": "[7]", "result": -25, "unit": "%"},
      {"measurement": "inhibition at 10 µM", "setting": "[8]", "result": -50, "unit": "%"},
      {"measurement": "inhibition at 10 µM", "setting": "[9]", "result": 1, "unit": "%"},
      {"measurement": "inhibition at 10 µM", "setting": "[10]", "result": 27, "unit": "%"},
      {"measurement": "inhibition at 10 µM", "setting": "[11]", "result": 4, "unit": "%"},
      {"measurement": "inhibition at 10 µM", "setting": "[12]", "result": -18, "unit": "%"},
      {"measurement": "remaining activity at 10 µM", "setting": "[13]", "result": 14, "unit": "%"}
    ]},
    {"smiles": "CC(C)=CCC[C@@H]1COc2c(C)cc(O)c3c2[C@H]1CC[C@H]3C", "note": "[Compound 3, 5,18-epoxy-8-hydroxyserrulat-14-ene]", "values": [
      {"measurement": "inhibition at 10 µM", "setting": "[1]", "result": 28, "unit": "%"},
      {"measurement": "inhibition at 10 µM", "setting": "[2]", "result": 23, "unit": "%"},
      {"measurement": "inhibition at 10 µM", "setting": "[3]", "result": 13, "unit": "%"},
      {"measurement": "inhibition at 10 µM", "setting": "[4]", "result": 5, "unit": "%"},
      {"measurement": "inhibition at 10 µM", "setting": "[5]", "result": 40, "unit": "%"},
      {"measurement": "inhibition at 10 µM", "setting": "[6]; 10 μM", "result": 2, "unit": "%"},
      {"measurement": "inhibition at 10 µM", "setting": "[7]", "result": -20, "unit": "%"},
      {"measurement": "inhibition at 10 µM", "setting": "[8]", "result": -9, "unit": "%"},
      {"measurement": "inhibition at 10 µM", "setting": "[9]", "result": 6, "unit": "%"},
      {"measurement": "inhibition at 10 µM", "setting": "[10]", "result": -130, "unit": "%"},
      {"measurement": "inhibition at 10 µM", "setting": "[11]", "result": -10, "unit": "%"},
      {"measurement": "inhibition at 10 µM", "setting": "[12]", "result": 9, "unit": "%"},
      {"measurement": "remaining activity at 10 µM", "setting": "[13]", "result": 27, "unit": "%"}
    ]},
    {"smiles": "CC(C)=CCC[C@@H]1C(O)Oc2c(C)cc(O)c3c2[C@H]1CC[C@H]3C", "note": "(stereo partly drawn) [Compound 2, 5,18-epoxyserrulat-14-en-8,18-diol]", "values": [
      {"measurement": "inhibition at 10 µM", "setting": "[1]", "result": 25, "unit": "%"},
      {"measurement": "inhibition at 10 µM", "setting": "[2]", "result": 30, "unit": "%"},
      {"measurement": "inhibition at 10 µM", "setting": "[3]", "result": 16, "unit": "%"},
      {"measurement": "inhibition at 10 µM", "setting": "[4]", "result": 18, "unit": "%"},
      {"measurement": "inhibition at 10 µM", "setting": "[5]", "result": 29, "unit": "%"},
      {"measurement": "inhibition at 10 µM", "setting": "[6]; 10 μM", "result": 0, "unit": "%"},
      {"measurement": "inhibition at 10 µM", "setting": "[7]", "result": -26, "unit": "%"},
      {"measurement": "inhibition at 10 µM", "setting": "[8]", "result": -1, "unit": "%"},
      {"measurement": "inhibition at 10 µM", "setting": "[9]", "result": 3, "unit": "%"},
      {"measurement": "inhibition at 10 µM", "setting": "[10]", "result": -47, "unit": "%"},
      {"measurement": "inhibition at 10 µM", "setting": "[11]", "result": 25, "unit": "%"},
      {"measurement": "inhibition at 10 µM", "setting": "[12]", "result": -14, "unit": "%"},
      {"measurement": "remaining activity at 10 µM", "setting": "[13]", "result": 20, "unit": "%"}
    ]}
  ]
}
